Reference: US11173162B2, “Bicyclic heterocycles as FGFR4 inhibitors” (Incyte Corporation, priority 2015, dated 2021)

Tested on: FGFR3 enzyme
Assay: FGFR Enzymatic Assay (FRET peptide phosphorylation), FGFR3
Type: biochemical
Conditions: IC50 ratio showing FGFR3 selectivity; Table 2A, pre-incubated for 4 hours
Method: The inhibitor potency of the exemplified compounds was measured in an enzyme assay that measures peptide phosphorylation using FRET measurements to detect product formation. Inhibitors were serially diluted in DMSO and a volume of 0.5 μL was transferred to the wells of a 384-well plate.
GraphPad prism3 was used to analyze the data.

Row | FGFR1/FGFR3 | FGFR4/FGFR3 | Compound
1 | >10 | >5 | CCN1C(=O)N(c2c(F)c(OC)cc(OC)c2F)Cc2cnc(-c3ccc(C(=O)NC4CC4)nc3)cc21 [Example 176, N-cyclopropyl-5-(3-(2,6-difluoro-3,5-dimethoxyphenyl)-1-ethyl-2-oxo-1,2,3,4-tetrahydropyrido[4,3-d]pyrimidin-7-yl)picolinamide]
2 | >5 | >5 | CCN1C(=O)N(c2c(F)c(OC)cc(OC)c2F)Cc2cnc(-c3ccc(C(N)=O)nc3)cc21 [Example 184, 5-(3-(2,6-difluoro-3,5-dimethoxyphenyl)-1-ethyl-2-oxo-1,2,3,4-tetrahydropyrido[4,3-d]pyrimidin-7-yl)picolinamide]
3 | >5 | >3 | COC(=O)Nc1ccc(N2C(=O)N(c3c(F)c(OC)cc(OC)c3F)Cc3cnc(-c4cn(C)nc4C)cc32)cc1 [Example 123, Methyl 4-(3-(2,6-difluoro-3,5-dimethoxyphenyl)-7-(1,3-dimethyl-1H-pyrazol-4-yl)-2-oxo-3,4-dihydropyrido[4,3-d]pyrimidin-1(2H)-yl)phenylcarbamate]
4 | >5 | >10 | CCN1C(=O)N(c2c(F)c(OC)cc(OC)c2F)Cc2cnc(-c3ccc(C4(C#N)CCC4)cc3)cc21 [Example 181, 1-(4-(3-(2,6-difluoro-3,5-dimethoxyphenyl)-1-ethyl-2-oxo-1,2,3,4-tetrahydropyrido[4,3-d]pyrimidin-7-yl)phenyl)cyclobutanecarbonitrile]
5 | >5 | – | CCN1C(=O)N(c2c(F)c(OC)cc(OC)c2F)Cc2cnc(-c3cccnc3)cc21 [Example 23, 3-(2,6-difluoro-3,5-dimethoxyphenyl)-1-ethyl-7-(pyridin-3-yl)-3,4-dihydropyrido[4,3-d]pyrimidin-2(1H)-one]
6 | >5 | >5 | COc1cc(OC)c(F)c(N2Cc3cnc(-c4cn(C)nc4C)cc3N(Cc3cnn(CC#N)c3)C2=O)c1F [Example 125, 2-(4-((3-(2,6-difluoro-3,5-dimethoxyphenyl)-7-(1,3-dimethyl-1H-pyrazol-4-yl)-2-oxo-3,4-dihydropyrido[4,3-d]pyrimidin-1(2H)-yl)methyl)-1H-pyrazol-1-yl)acetonitrile]
7 | >1 | >5 | CCCN1C(=O)N(c2c(F)c(OC)cc(OC)c2F)Cc2cnc(-c3cn(C)nc3C)cc21 [Example 30, 3-(2,6-difluoro-3,5-dimethoxyphenyl)-7-(1,3-dimethyl-1H-pyrazol-4-yl)-1-propyl-3,4-dihydropyrido[4,3-d]pyrimidin-2(1H)-one]
8 | >5 | >3 | COc1cc(OC)c(F)c(N2Cc3cnc(-c4cn(C)nc4C)cc3N(c3cc(F)cc(C#N)c3)C2=O)c1F [Example 78, 3-(3-(2,6-difluoro-3,5-dimethoxyphenyl)-7-(1,3-dimethyl-1H-pyrazol-4-yl)-2-oxo-3,4-dihydropyrido[4,3-d]pyrimidin-1(2H)-yl)-5-fluorobenzonitrile]
9 | >5 | >10 | COc1cc(OC)c(F)c(N2Cc3cnc(-c4cn(C)nc4C)cc3N(Cc3cc(C)on3)C2=O)c1F [Example 31, 3-(2,6-difluoro-3,5-dimethoxyphenyl)-7-(1,3-dimethyl-1H-pyrazol-4-yl)-1-((5-methylisoxazol-3-yl)methyl)-3,4-dihydropyrido[4,3-d]pyrimidin-2(1H)-one]
10 | >5 | >3 | CCN1C(=O)N(c2c(F)c(OC)cc(OC)c2F)Cc2cnc(-c3cn(CC)nc3C)cc21 [Example 168, 3-(2,6-difluoro-3,5-dimethoxyphenyl)-1-ethyl-7-(1-ethyl-3-methyl-1H-pyrazol-4-yl)-3,4-dihydropyrido[4,3-d]pyrimidin-2(1H)-one]
11 | >10 | >10 | CCn1cc(CN2C(=O)N(c3c(F)c(OC)cc(OC)c3F)Cc3cnc(-c4cn(C)nc4C)cc32)cn1 [Example 39, 3-(2,6-difluoro-3,5-dimethoxyphenyl)-7-(1,3-dimethyl-1H-pyrazol-4-yl)-1-((1-ethyl-1H-pyrazol-4-yl)methyl)-3,4-dihydropyrido[4,3-d]pyrimidin-2(1H)-one]
12 | >5 | >5 | COc1cc(OC)c(F)c(N2Cc3cnc(-c4cn(C)nc4C)cc3N(Cc3cc(C(C)C)on3)C2=O)c1F [Example 93, 3-(2,6-difluoro-3,5-dimethoxyphenyl)-7-(1,3-dimethyl-1H-pyrazol-4-yl)-1-((5-isopropylisoxazol-3-yl)methyl)-3,4-dihydropyrido[4,3-d]pyrimidin-2(1H)-one]
13 | >5 | – | CNC(=O)c1ccc(-c2cc3c(cn2)CN(c2c(F)c(OC)cc(OC)c2F)C(=O)C32CC2)cc1 [Example 19, 4-(2′-(2,6-difluoro-3,5-dimethoxyphenyl)-3′-oxo-2′,3′-dihydro-1′H-spiro[cyclopropane-1,4′-[2,7]naphthyridine]-6′-yl)-N-methylbenzamide]
14 | >10 | >10 | COc1cc(OC)c(F)c(N2Cc3cnc(-c4cn(C)nc4C)cc3N(c3ccc(F)cc3)C2=O)c1F [Example 40, 3-(2,6-difluoro-3,5-dimethoxyphenyl)-7-(1,3-dimethyl-1H-pyrazol-4-yl)-1-(4-fluorophenyl)-3,4-dihydropyrido[4,3-d]pyrimidin-2(1H)-one]
15 | >5 | >5 | COc1cc(OC)c(F)c(N2Cc3cnc(-c4cn(C)nc4C)cc3N(C(C)C)C2=O)c1F [Example 90, 3-(2,6-difluoro-3,5-dimethoxyphenyl)-7-(1,3-dimethyl-1H-pyrazol-4-yl)-1-isopropyl-3,4-dihydropyrido[4,3-d]pyrimidin-2(1H)-one]
16 | >5 | >3 | COc1cc(OC)c(F)c(N2Cc3cnc(-c4cn(C)nc4C)cc3N(c3ccc4nc(C)oc4c3)C2=O)c1F [Example 75, 3-(2,6-difluoro-3,5-dimethoxyphenyl)-7-(1,3-dimethyl-1H-pyrazol-4-yl)-1-(2-methylbenzo[d]oxazol-6-yl)-3,4-dihydropyrido[4,3-d]pyrimidin-2(1H)-one]
17 | >5 | >10 | COc1cc(OC)c(F)c(N2Cc3cnc(-c4cn(C)nc4C)cc3N(Cc3ccc(F)cc3)C2=O)c1F [Example 34, 3-(2,6-difluoro-3,5-dimethoxyphenyl)-7-(1,3-dimethyl-1H-pyrazol-4-yl)-1-(4-fluorobenzyl)-3,4-dihydropyrido[4,3-d]pyrimidin-2(1H)-one]
18 | >1 | >5 | COc1cc(OC)c(F)c(N2Cc3cnc(-c4cn(C)nc4C)cc3N(C3CCCC3)C2=O)c1F [Example 32, 1-cyclopentyl-3-(2,6-difluoro-3,5-dimethoxyphenyl)-7-(1,3-dimethyl-1H-pyrazol-4-yl)-3,4-dihydropyrido[4,3-d]pyrimidin-2(1H)-one]
19 | >10 | >5 | CNC(=O)c1ccc(CN2C(=O)N(c3c(F)c(OC)cc(OC)c3F)Cc3cnc(-c4cn(C)nc4C)cc32)cc1 [Example 62, 4-((3-(2,6-difluoro-3,5-dimethoxyphenyl)-7-(1,3-dimethyl-1H-pyrazol-4-yl)-2-oxo-3,4-dihydropyrido[4,3-d]pyrimidin-1(2H)-yl)methyl)-N-methylbenzamide]
20 | >3 | >3 | COc1cc(OC)c(F)c(N2Cc3cnc(-c4ccncc4)cc3C3(CC3)C2=O)c1F [Example 185, 2′-(2,6-difluoro-3,5-dimethoxyphenyl)-6′-(pyridin-4-yl)-1′H-spiro[cyclopropane-1,4′-[2,7]naphthyridin]-3′(2′H)-one]
21 | >5 | – | COc1cc(OC)c(F)c(N2Cc3cnc(-c4cn(C)nc4C)cc3C3(CC3)C2=O)c1F [Example 21, 2′-(2,6-difluoro-3,5-dimethoxyphenyl)-6′-(1,3-dimethyl-1H-pyrazol-4-yl)-1′,2′-dihydro-3′H-spiro[cyclopropane-1,4′-[2,7]naphthyridin]-3′-one]
22 | >5 | >5 | COc1cc(OC)c(F)c(N2Cc3cnc(-c4cn(C)nc4C)cc3N(Cc3ccncc3)C2=O)c1F [Example 69, 3-(2,6-difluoro-3,5-dimethoxyphenyl)-7-(1,3-dimethyl-1H-pyrazol-4-yl)-1-(pyridin-4-ylmethyl)-3,4-dihydropyrido[4,3-d]pyrimidin-2(1H)-one]

Row | Compound | FGFR1/FGFR3 | FGFR4/FGFR3
23 | COc1cc(OC)c(F)c(N2Cc3cnc(-c4cn(C)nc4C)cc3N(c3cnn(C4CC4)c3)C2=O)c1F [Example 130, 1-(1-cyclopropyl-1H-pyrazol-4-yl)-3-(2,6-difluoro-3,5-dimethoxyphenyl)-7-(1,3-dimethyl-1H-pyrazol-4-yl)-3,4-dihydropyrido[4,3-d]pyrimidin-2(1H)-one] | >5 | >5
24 | COc1cc(OC)c(F)c(N2Cc3cnc(-c4cn(CC(=O)N5CCOCC5)nc4C)cc3C3(CC3)C2=O)c1F [Example 159, 2′-(2,6-difluoro-3,5-dimethoxyphenyl)-6′-(3-methyl-1-(2-morpholino-2-oxoethyl)-1H-pyrazol-4-yl)-1′H-spiro[cyclopropane-1,4′-[2,7]naphthyridin]-3′(2′H)-one] | >5 | >3
25 | COc1cc(OC)c(F)c(N2Cc3cnc(-c4cn(CCN(C)C)nc4C)cc3C3(CC3)C2=O)c1F [Example 164, 2′-(2,6-difluoro-3,5-dimethoxyphenyl)-6′-(1-(2-(dimethylamino)ethyl)-3-methyl-1H-pyrazol-4-yl)-1′H-spiro[cyclopropane-1,4′-[2,7]naphthyridin]-3′(2′H)-one] | >3 | >3
26 | COc1cc(OC)c(F)c(N2Cc3cnc(-c4cn(C)nc4C)cc3N(c3cnccn3)C2=O)c1F [Example 70, 3-(2,6-difluoro-3,5-dimethoxyphenyl)-7-(1,3-dimethyl-1H-pyrazol-4-yl)-1-(pyrazin-2-yl)-3,4-dihydropyrido[4,3-d]pyrimidin-2(1H)-one] | >5 | >5
